Test system: Trypanosoma brucei
Test: ALAMARBLUE cell viability / growth assay of T. brucei cells
Type: cell-based
Conditions: T. brucei, 72 hours, normalized to DMSO control
Description: To determine cell growth rate, WT and two TbRPA1 RNAi KD strains (KD1 and KD2) were seeded at a density of 1×10^5 cells/ml and cultured with or without tetracycline for the induction of RNAi. Cells were counted every 12 hours for 2 days. To determine the viability of TbRPA1-depleted cells, ALAMARBLUE® assay (Thermo Fisher, an established colorimetric technique that detects metabolically active cells) was used. Cells from each time point were incubated with ALAMARBLUE® dye for 4-6 hours and percentage of live cells was determined by measuring resorufin converted from resazurin by reducing environment of live cells. Synergy H1 microplate reader (BioTek) was used with 560/590 nm (excitation/emission) filter settings and Relative Fluorescence Unit (RFU) values were obtained. The percentage of viable cells were calculated from the RFU values.
The initial assessment of JC-229's inhibitory effect on T. brucei cell growth was performed at 50 μM concentration. Trypanosome cells were seeded at 1×10^3 cells/ml density in 180 μl in a 96-well culture plate in triplicate. These cells were incubated with 50 μM JC-229 for 24, 48, and 72 hours. DMSO was used as a vehicle control at 0.0075%. JC-229-treated culture and control cultures were analyzed with the ALAMARBLUE® dye as described above.
To obtain the EC50 value of JC-229, T. brucei cells were seeded at 1×10^3 cells/ml density in 180 μl in a 96-well culture plate in triplicate. These cells were incubated for 72 hours with increasing concentrations of JC-229, (0.5 μM to 50 μM) and cell viability was determined using the ALAMARBLUE® dye as described above.
Trypanosoma brucei cytotoxicity of JC-229 and analogs were measured using ALAMARBLUE® assay (Rampersad, S. N. Multiple applications of ALAMARBLUE® as an indicator of metabolic function and cellular health in cell viability bioassays. Sensors (Basel) 12, 12347-12360 (2012). Trypanosome cells were seeded at 1×10^3 cells/ml density in 180 μl in a 96-well culture plate in triplicate. These cells were incubated with indicated concentration of JC compounds for 72 hours. DMSO was used as a vehicle control at 0.0075%. JC compound-treated cultures were then incubated with ALAMARBLUE® dye for 4-6 hours and percentage of live cells was determined using Synergy H1 microplate reader (BioTek) with 560/590 nm (excitation/emission) filter settings and Relative Fluorescence Unit (RFU) values were obtained. The percentage of viable cells were calculated from the RFU values by normalizing to DMSO treated control. In one embodiment, the inhibitor is characterized in that it provides at least 50%, at least 80% or at least 90% inhibition at a concentration of 5 μM when tested in accordance with the above conditions.

Cc1ccc(C(=O)Nc2nc3ccccc3[nH]2)cc1S(=O)(=O)Nc1ccc(Cl)c(Cl)c1 [JC-865]
% Inhibition @2 μM (2 μM): −1% | % Inhibition @10 μM: 55%

Cc1ccc(S(=O)(=O)Nc2ccc(Cl)c(Cl)c2)cc1C(=O)Nc1ccc(Cl)c(Cl)c1 [JC-858]
% Inhibition @2 μM (2 μM): 13% | % Inhibition @5 μM (5 μM): 86% | % Inhibition @10 μM: 100%

Cc1ccc(C(=O)Nc2ccc(Cl)c(Cl)c2)cc1S(=O)(=O)C1CCN(C(=O)OC(C)(C)C)CC1 [JC-910]
% Inhibition @2 μM (2 μM): 18% | % Inhibition @10 μM: 73%

Cc1ccc(C(=O)Nc2ccc(Cl)c(Cl)c2)cc1S(=O)(=O)C1CCNCC1.O=C(O)C(F)(F)F [JC-911]
% Inhibition @2 μM (2 μM): 11% | % Inhibition @10 μM: 25%

Cc1ccc(C(=O)Nc2ccc(Cl)c(Cl)c2)cc1S(=O)(=O)NCCNS(=O)(=O)c1ccc(Br)cc1C(F)(F)F [JC-995]
% Inhibition @2 μM (2 μM): −34% | % Inhibition @5 μM (5 μM): 93%

Cc1ccc(C(=O)Nc2ccc(Cl)c(Cl)c2)cc1S(=O)(=O)NCCNS(=O)(=O)c1cc(C(=O)Nc2ccc(Cl)c(Cl)c2)ccc1C [JC-1021]
% Inhibition @2 μM (2 μM): 0% | % Inhibition @5 μM (5 μM): −5%

Cc1ccc(C(=O)Nc2ccc(Cl)c(Cl)c2)cc1S(=O)(=O)NCCCCO [JC-895]
% Inhibition @2 μM (2 μM): 10% | % Inhibition @10 μM: 45%

Cc1ccc(C(=O)Nc2ccc(Cl)c(Cl)c2)cc1S(=O)(=O)NCCO [JC-872]
% Inhibition @2 μM (2 μM): −13% | % Inhibition @10 μM: 21%

Cc1ccc(C(=O)NNc2ccccc2)cc1S(=O)(=O)Nc1ccc(Cl)c(Cl)c1 [JC-860]
% Inhibition @2 μM (2 μM): 5% | % Inhibition @10 μM: 24%

Cc1ccc(C(=O)Nc2ccc(Cl)c(Cl)c2)cc1S(=O)(=O)C1CCCN(C(=O)OC(C)(C)C)C1 (centres unmarked) [Jc-950]
% Inhibition @2 μM (2 μM): 28% | % Inhibition @5 μM (5 μM): 3%

Cc1ccc(C(=O)Nc2ccc(Cl)c(Cl)c2)cc1S(=O)(=O)Nc1ccc(O)cc1 [JC-912]
% Inhibition @2 μM (2 μM): −5% | % Inhibition @10 μM: 58%

Cc1ccc(C(=O)Nc2ccc(Cl)c(Cl)c2)cc1S(=O)(=O)NCc1ccccc1 [JC-857]
% Inhibition @2 μM (2 μM): −5% | % Inhibition @10 μM: 14%

Cc1ccc(C(=O)Nc2ccc(Cl)c(Cl)c2)cc1S(=O)(=O)NCCCc1ccccc1 [JC-908]
% Inhibition @2 μM (2 μM): 18% | % Inhibition @10 μM: 62%

Cc1ccc(C(=O)Nc2ccc(Cl)c(Cl)c2)cc1S(=O)(=O)NCCNS(=O)(=O)c1ccc(Br)cc1 [JC-923]
% Inhibition @2 μM (2 μM): 2% | % Inhibition @5 μM (5 μM): 100.9% | % Inhibition @10 μM: 100%

Cc1ccc(C(=O)Nc2ccc(Cl)c(Cl)c2)cc1S(=O)(=O)NCCNC(=O)c1ccccc1 [JC-920]
% Inhibition @2 μM (2 μM): −5% | % Inhibition @10 μM: −9%

Cc1ccc(C(=O)Nc2ccc(Cl)c(Cl)c2)cc1S(=O)(=O)NCCCNC(=O)OC(C)(C)C [JC-932]
% Inhibition @2 μM (2 μM): 7% | % Inhibition @10 μM: 73%

Cc1ccc(C(=O)N[C@H](Cc2ccccc2)C(N)=O)cc1S(=O)(=O)Nc1ccc(Cl)c(Cl)c1 [JC-861]
% Inhibition @2 μM (2 μM): 5% | % Inhibition @10 μM: 4%

Cc1ccc(C(=O)Nc2ccc(Cl)c(Cl)c2)cc1S(=O)(=O)NCCCNC(=S)Nc1ccc(F)cc1 [JC-1015]
% Inhibition @2 μM (2 μM): 11% | % Inhibition @5 μM (5 μM): 100%

Cc1ccc(C(=O)Nc2ccc(Cl)c(Cl)c2)cc1S(=O)(=O)NC(Cc1ccccc1)C(N)=O (centres unmarked) [JC-870]
% Inhibition @2 μM (2 μM): −34% | % Inhibition @10 μM: 49%

Cc1ccc(C(=O)Nc2ccc(Cl)c(Cl)c2)cc1S(=O)(=O)n1c(CN)nc2ccccc21.O=C(O)C(F)(F)F [JC-904]
% Inhibition @2 μM (2 μM): 14% | % Inhibition @10 μM: 2%

Cc1ccc(C(=O)Nc2ccc(Cl)c(Cl)c2)cc1S(=O)(=O)C1CCC(NC(=O)Cc2ccccc2)CC1 (centres unmarked) [JC-926]
% Inhibition @2 μM (2 μM): −8% | % Inhibition @5 μM (5 μM): 28.9% | % Inhibition @10 μM: 100%

Cc1ccc(C(=O)Nc2ccc(Cl)c(Cl)c2)cc1S(=O)(=O)N1CCC(NC(=S)Nc2ccccc2F)CC1 [JC-1018]
% Inhibition @2 μM (2 μM): 100% | % Inhibition @5 μM (5 μM): 100%

Cc1ccc(C(=O)Nc2cc(C(F)(F)F)n[nH]2)cc1S(=O)(=O)Nc1ccc(Cl)c(Cl)c1 [JC-866]
% Inhibition @2 μM (2 μM): −15% | % Inhibition @10 μM: 23%

Cc1ccc(C(=O)Nc2ccc(Cl)c(Cl)c2)cc1S(=O)(=O)N1CCC(N)CC1.O=C(O)C(F)(F)F [JC-906]
% Inhibition @2 μM (2 μM): 23% | % Inhibition @5 μM (5 μM): 100% | % Inhibition @10 μM: 100%

Cc1ccc(C(=O)Nc2ccc(Cl)c(Cl)c2)cc1S(=O)(=O)NCCOCCO [JC-890]
% Inhibition @2 μM (2 μM): 4% | % Inhibition @10 μM: 37%

Cc1ccc(C(=O)Nc2ccc(Cl)c(Cl)c2)cc1S(=O)(=O)NCCNS(=O)(=O)c1ccc(OCc2ccccc2)cc1 [JC-997]
% Inhibition @2 μM (2 μM): −9% | % Inhibition @5 μM (5 μM): 92%

Cc1ccc(C(=O)Nc2ccc(Cl)c(Cl)c2)cc1S(=O)(=O)N1CCCC(NC(=S)Nc2ccccc2F)C1 (centres unmarked) [JC-1006]
% Inhibition @2 μM (2 μM): 17% | % Inhibition @5 μM (5 μM): 101%

Cc1ccc2c(NS(=O)(=O)c3cc(C(=O)Nc4ccc(Cl)c(Cl)c4)ccc3C)cccc2n1 [JC-913]
% Inhibition @2 μM (2 μM): 2% | % Inhibition @10 μM: 6%

Cc1ccc(C(=O)Nc2ccc(Cl)c(Cl)c2)cc1S(=O)(=O)Nc1ccc([N+](=O)[O-])cc1N [JC-892]
% Inhibition @2 μM (2 μM): 13% | % Inhibition @10 μM: 1%

Cc1ccc(C(=O)Nc2ccc(Cl)c(Cl)c2)cc1S(=O)(=O)N1CCN(C)CC1 [JC-916]
% Inhibition @2 μM (2 μM): −2% | % Inhibition @10 μM: 36%

Cc1ccc(C(=O)Nc2ccc(Cl)c(Cl)c2)cc1S(=O)(=O)Nc1cnc2ccccc2c1 [JC-914]
% Inhibition @2 μM (2 μM): −7% | % Inhibition @10 μM: −3%

Cc1ccc(C(=O)Nc2ccc(Cl)c(Cl)c2)cc1S(=O)(=O)NCCNC(=O)[C@H](N)Cc1ccccc1 [JC-922]
% Inhibition @2 μM (2 μM): −7% | % Inhibition @10 μM: 19%

Cc1ccc(C(=O)Nc2ccc(Cl)c(Cl)c2)cc1S(=O)(=O)Nc1ccncc1 [JC-915]
% Inhibition @2 μM (2 μM): −11% | % Inhibition @10 μM: 6%

Cc1ccc(C(=O)Nc2ccc(Cl)c(Cl)c2)cc1S(=O)(=O)N1CCCC(NC(=S)Nc2ccc(C(F)(F)F)cc2)C1 (centres unmarked) [JC-1008]
% Inhibition @2 μM (2 μM): 100% | % Inhibition @5 μM (5 μM): 100%

Cc1ccc(C(=O)Nc2ccc(Cl)c(Cl)c2)cc1S(=O)(=O)NCCCNS(=O)(=O)c1ccc(Br)cc1 [JC-998]
% Inhibition @2 μM (2 μM): 0% | % Inhibition @5 μM (5 μM): 100%

Cc1ccc(C(=O)Nc2ccc(Cl)c(Cl)c2)cc1S(=O)(=O)N1CCC[C@@H](N)C1 [JC-963]
inhibition at 2 µM (Trypanosoma brucei, 2 μM): 96% | inhibition at 5 µM (Trypanosoma brucei, 5 μM): 100%

Cc1ccc(C(=O)Nc2ccc(Cl)c(Cl)c2)cc1S(=O)(=O)N1CCC(F)(F)CC1 [JC-886]
% Inhibition @2 μM (2 μM): 3% | % Inhibition @5 μM (5 μM): 93.7% | % Inhibition @10 μM: 100%

Cc1ccc(C(=O)NCc2ccccc2)cc1S(=O)(=O)Nc1ccc(Cl)c(Cl)c1 [JC-856]
% Inhibition @2 μM (2 μM): −7% | % Inhibition @10 μM: 22%

Cc1ccc(C(=O)NCCN(C)C)cc1S(=O)(=O)Nc1ccc(Cl)c(Cl)c1.O=C(O)C(F)(F)F [JC-863]
% Inhibition @2 μM (2 μM): −40% | % Inhibition @10 μM: 2%

Cc1ccc(C(=O)Nc2ccc(Cl)c(Cl)c2)cc1S(=O)(=O)C1CCCC(NC(=O)OC(C)(C)C)C1 (centres unmarked) [JC-954]
% Inhibition @2 μM (2 μM): 10% | % Inhibition @5 μM (5 μM): 35%

CC(=O)c1ccc(NS(=O)(=O)c2cc(C(=O)Nc3ccc(Cl)c(Cl)c3)ccc2C)cc1 [JC-909]
% Inhibition @2 μM (2 μM): 15% | % Inhibition @10 μM: 17%

Cc1ccc(C(=O)Nc2ccc(Cl)c(Cl)c2)cc1S(=O)(=O)C1CCC(N)CC1 (centres unmarked) [JC-925]
% Inhibition @2 μM (2 μM): −8% | % Inhibition @10 μM: 17%

Cc1ccc(C(=O)Nc2ccc(Cl)c(Cl)c2)cc1S(=O)(=O)NCCCN.O=C(O)C(F)(F)F [JC-933]
% Inhibition @2 μM (2 μM): 5% | % Inhibition @10 μM: 60%

Cc1ccc(C(=O)Nc2ccc(Cl)c(Cl)c2)cc1S(=O)(=O)NCc1nc2c(F)c(F)ccc2[nH]1.O=C(O)C(F)(F)F [JC-903]
% Inhibition @2 μM (2 μM): 11% | % Inhibition @10 μM: 37%

Cc1ccc(C(=O)Nc2ccc(Cl)c(Cl)c2)cc1S(=O)(=O)N1CCCC(NC(=O)OC(C)(C)C)C1 (centres unmarked) [JC-928]
% Inhibition @2 μM (2 μM): 15% | % Inhibition @5 μM (5 μM): 99.6% | % Inhibition @10 μM: 100%

Cc1ccc(C(=O)NCCO)cc1S(=O)(=O)Nc1ccc(Cl)c(Cl)c1 [JC-864]
% Inhibition @2 μM (2 μM): −20% | % Inhibition @10 μM: 42%

Reference: US20250188033A1, “INHIBITOR OF REPLICATION PROTEIN A1 OF TRYPANOSOMA BRUCEI AND METHOD OF USE THEREOF” (Research Foundation of the City University of New York, published 2025)
